From ChEMBL document CHEMBL5154770, “Discovery of novel ataxia telangiectasia mutated (ATM) kinase modulators: Computational simulation, biological evaluation and cancer combinational chemotherapy study” (Eur J Med Chem, 2022)
Active and inactive are the calls of the source. No cut-off for these calls is given here.

Legend:
[1] = system: MCF7; assay: Antiproliferative activity against human MCF7 cells measured after 2 days by SRB assay; assay type: functional, cell-based; settings: MCF7, 48 h
[2] = system: SW480; assay: Antiproliferative activity against human SW480 cells measured after 3 days by SRB assay; assay type: functional, cell-based; settings: SW480, 72 h
[3] = system: HEK293; assay: Cytotoxicity against human HEK293 cells at 100 uM; assay type: toxicity, cell-based; settings: hek293, 100 µM
[4] = system: MDCK; assay: Cytotoxicity against dog MDCK cells at 100 uM; assay type: toxicity, cell-based, Canis lupus familiaris
[5] = biological target: T1, Serine-protein kinase ATM (Homo sapiens, UniProt Q13315); assay: Binding affinity towards ATM (unknown origin) assessed as increase in thermal stability of ATM at 30 uM measured by thermal shift assay
T1 sequence (Q13315 whole entry): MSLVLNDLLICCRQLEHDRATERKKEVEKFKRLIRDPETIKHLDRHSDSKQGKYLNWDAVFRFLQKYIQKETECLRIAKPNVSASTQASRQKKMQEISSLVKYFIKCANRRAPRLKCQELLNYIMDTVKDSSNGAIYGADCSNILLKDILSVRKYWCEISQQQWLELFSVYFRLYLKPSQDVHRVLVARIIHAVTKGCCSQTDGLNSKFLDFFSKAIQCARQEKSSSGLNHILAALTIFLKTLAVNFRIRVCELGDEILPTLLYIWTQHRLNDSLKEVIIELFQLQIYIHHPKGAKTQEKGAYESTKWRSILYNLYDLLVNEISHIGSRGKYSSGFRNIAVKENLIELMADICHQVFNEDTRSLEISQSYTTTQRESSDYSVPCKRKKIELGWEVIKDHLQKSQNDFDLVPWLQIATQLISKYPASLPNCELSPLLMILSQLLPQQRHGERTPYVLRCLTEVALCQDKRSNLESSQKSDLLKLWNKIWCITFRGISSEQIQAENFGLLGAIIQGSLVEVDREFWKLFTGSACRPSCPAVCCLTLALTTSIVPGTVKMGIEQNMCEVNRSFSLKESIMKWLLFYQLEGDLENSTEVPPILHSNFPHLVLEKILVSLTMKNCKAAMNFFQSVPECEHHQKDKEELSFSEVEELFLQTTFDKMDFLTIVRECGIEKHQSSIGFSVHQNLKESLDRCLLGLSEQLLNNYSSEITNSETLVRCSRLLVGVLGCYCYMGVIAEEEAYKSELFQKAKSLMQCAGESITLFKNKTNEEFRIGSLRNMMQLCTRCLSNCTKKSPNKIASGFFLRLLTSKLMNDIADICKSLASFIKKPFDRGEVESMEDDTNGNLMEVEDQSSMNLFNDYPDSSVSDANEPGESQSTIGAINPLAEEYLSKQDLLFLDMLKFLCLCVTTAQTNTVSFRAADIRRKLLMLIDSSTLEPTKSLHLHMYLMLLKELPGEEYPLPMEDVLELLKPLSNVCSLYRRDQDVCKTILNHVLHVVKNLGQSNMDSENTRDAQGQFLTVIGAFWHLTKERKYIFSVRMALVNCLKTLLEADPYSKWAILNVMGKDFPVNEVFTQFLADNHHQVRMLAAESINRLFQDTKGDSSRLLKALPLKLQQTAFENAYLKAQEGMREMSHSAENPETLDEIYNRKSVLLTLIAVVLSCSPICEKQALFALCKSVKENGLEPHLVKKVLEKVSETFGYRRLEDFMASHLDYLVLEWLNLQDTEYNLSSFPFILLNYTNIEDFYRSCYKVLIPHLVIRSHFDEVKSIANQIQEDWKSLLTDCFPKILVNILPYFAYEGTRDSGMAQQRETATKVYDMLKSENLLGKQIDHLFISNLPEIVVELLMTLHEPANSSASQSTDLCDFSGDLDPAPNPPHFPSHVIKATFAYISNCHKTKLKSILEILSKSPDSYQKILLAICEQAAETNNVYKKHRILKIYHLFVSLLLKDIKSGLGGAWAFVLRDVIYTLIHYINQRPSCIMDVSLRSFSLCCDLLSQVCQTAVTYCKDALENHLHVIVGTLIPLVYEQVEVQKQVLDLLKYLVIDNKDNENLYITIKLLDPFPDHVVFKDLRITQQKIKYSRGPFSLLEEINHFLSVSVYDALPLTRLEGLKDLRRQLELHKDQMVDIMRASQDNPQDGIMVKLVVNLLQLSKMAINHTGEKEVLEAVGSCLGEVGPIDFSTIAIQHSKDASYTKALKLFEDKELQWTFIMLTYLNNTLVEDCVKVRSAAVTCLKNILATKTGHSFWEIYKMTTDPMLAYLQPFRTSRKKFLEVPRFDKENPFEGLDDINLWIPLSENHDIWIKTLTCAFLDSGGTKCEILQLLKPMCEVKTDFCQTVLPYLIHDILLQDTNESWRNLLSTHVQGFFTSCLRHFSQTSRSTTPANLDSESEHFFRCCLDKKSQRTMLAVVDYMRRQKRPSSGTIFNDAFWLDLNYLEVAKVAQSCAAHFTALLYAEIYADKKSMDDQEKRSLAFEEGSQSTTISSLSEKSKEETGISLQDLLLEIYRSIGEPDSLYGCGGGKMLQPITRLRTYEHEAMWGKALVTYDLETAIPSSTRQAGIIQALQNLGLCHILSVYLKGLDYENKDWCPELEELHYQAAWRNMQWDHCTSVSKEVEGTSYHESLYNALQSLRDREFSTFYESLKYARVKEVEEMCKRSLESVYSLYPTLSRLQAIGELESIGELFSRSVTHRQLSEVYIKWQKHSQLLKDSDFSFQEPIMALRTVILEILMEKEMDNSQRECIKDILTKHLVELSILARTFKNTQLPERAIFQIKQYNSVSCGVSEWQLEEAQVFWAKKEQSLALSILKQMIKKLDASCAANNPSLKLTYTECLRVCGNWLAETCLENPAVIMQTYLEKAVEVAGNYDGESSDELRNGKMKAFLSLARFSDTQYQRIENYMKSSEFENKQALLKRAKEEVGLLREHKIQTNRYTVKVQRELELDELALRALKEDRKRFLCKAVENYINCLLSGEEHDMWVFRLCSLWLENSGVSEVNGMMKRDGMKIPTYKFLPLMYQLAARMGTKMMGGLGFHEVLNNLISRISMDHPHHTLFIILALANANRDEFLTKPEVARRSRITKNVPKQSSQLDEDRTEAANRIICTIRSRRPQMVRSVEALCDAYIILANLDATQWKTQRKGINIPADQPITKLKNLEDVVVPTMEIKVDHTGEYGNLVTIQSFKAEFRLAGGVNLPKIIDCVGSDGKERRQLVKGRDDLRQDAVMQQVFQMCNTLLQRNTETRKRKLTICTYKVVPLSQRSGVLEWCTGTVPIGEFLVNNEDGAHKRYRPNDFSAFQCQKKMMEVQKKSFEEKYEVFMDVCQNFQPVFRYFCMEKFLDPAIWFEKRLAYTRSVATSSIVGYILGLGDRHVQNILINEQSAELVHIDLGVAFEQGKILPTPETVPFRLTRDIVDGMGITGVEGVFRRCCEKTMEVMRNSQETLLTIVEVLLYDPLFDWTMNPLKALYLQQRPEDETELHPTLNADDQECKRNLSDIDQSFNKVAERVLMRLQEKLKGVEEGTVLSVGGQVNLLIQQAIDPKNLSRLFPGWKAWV

[6] = Toxicity in BALB/c nude mouse xenografted with human SW480 cells assessed as effect on body weight at 30 mg/kg, iv; assay type: organism-based; settings: in vivo
[7] = biological target: T1, Serine-protein kinase ATM; assay: Inhibition of ATM in human MCF7 cells assessed as decrease in pKAP-1 level measured by In-cell western assay; assay type: cell-based
[8] = biological target: T1, Serine-protein kinase ATM; assay: Inhibition of ATM in human MCF7 cells assessed as increase in pKAP1 level at 12.5 to 18 uM measured by western blot analysis; assay type: cell-based; settings: dose 12.5-18 µM
[9] = biological target: T1, Serine-protein kinase ATM; assay: Inhibition of ATM in human MCF7 cells assessed as increase in pATM level at 12.5 to 18 uM measured by western blot analysis; assay type: cell-based; settings: dose 12.5-18 µM
[10] = system: SW480; assay: Antiproliferative activity against human SW480 cells measured after 9 days by SRB assay; assay type: functional, cell-based; settings: SW480, 216 h
[11] = system: MCF7; assay: Antiproliferative activity against human MCF7 cells measured after 6 days by SRB assay; assay type: functional, cell-based; settings: MCF7, 144 h
[12] = biological target: T1, Serine-protein kinase ATM; assay: Activation of ATM in human MCF7 cells assessed as increase in pKAP-1 level at 0.001 to 100 uM measured by In-cell western assay; assay type: cell-based; settings: filed as activator, dose 0.001-100 µM
[13] = biological target: T1, Serine-protein kinase ATM; assay: Activation of ATM in human MCF7 cells assessed as increase in pKAP1 level at 30 uM in presence of 25 uM etoposide measured by western blot analysis; assay type: cell-based; settings: filed as activator
[14] = system: SW480; assay: Antiproliferative activity against human SW480 cells assessed as growth inhibition at 100 uM measured after 3 days by SRB assay; assay type: functional; settings: SW480, 72 h, time 3 day, read-out: GI
[15] = system: MCF7; assay: Antiproliferative activity against human MCF7 cells assessed as growth inhibition at 100 uM measured after 2 days by SRB assay; assay type: functional; settings: MCF7, 48 h, time 2 day, read-out: GI
[16] = biological target: T1, Serine-protein kinase ATM; assay: Activation of ATM in human MCF7 cells assessed as increase in pATM level at 30 uM in presence of 25 uM etoposide measured by western blot analysis; assay type: cell-based; settings: filed as activator
[17] = biological target: T1, Serine-protein kinase ATM; assay: Competitive inhibition of ATM (unknown origin) measured by ATP-competitive binding assay

IC50 [1] [µM]	IC50 [2] [µM]	SMILES	Activity [3]	Activity [4]	other results
0.6	1.1	CN(C)CCCOc1ccc(-c2ccc3ncc4c(c3c2)n(C2CCOCC2)c(=O)n4C)cn1	Non-Toxic	Non-Toxic	
6.3	4.9	OCCNCc1c(OCc2ccc(Cl)cc2Cl)ccc2ccccc12	Non-Toxic	Non-Toxic	Activity [5]: Active; Activity [6]: Non-Toxic; IC50 [7]: 33.4 µM; inhibition [8]: Active; inhibition [9]: Active; IC50 [10]: 5.5 µM; IC50 [11]: 21.3 µM
24.8	26.5	O=c1cc(-c2cccc3c2Sc2ccccc2S3)oc(N2CCOCC2)c1 [KU-55933]	Non-Toxic	Non-Toxic	
13.2	14.7	CCN(CC)CCCC(C)Nc1ccnc2cc(Cl)ccc12 (stereo not drawn) [CHLOROQUINE]			
11.9	13.3	C[C@@H]1CN(CC(=O)Nc2ccc3c(c2)Cc2cccc(-c4cc(=O)cc(N5CCOCC5)o4)c2S3)C[C@H](C)O1	Non-Toxic	Non-Toxic	IC50 [10]: 3.3 µM; IC50 [11]: 2.8 µM
> 100	> 100	COc1ccc(C(=O)NC(=S)Nc2cccc(-c3nc4ncccc4o3)c2)cc1Cl	Non-Toxic	Non-Toxic	Activity ([5]; filed as activator): Active; Activity [12]: Active; Activity [13]: Active; inhibition of growth at 100 µM [14]: < 20%; inhibition of growth at 100 µM [15]: < 20%; Activity [16]: Active
		CNC(=O)c1ccc(-c2cnc3cnc(-c4ccccc4)cn23)cc1			IC50 [17]: 0.31 µM
